Measured values: patent US9267949B2, “Alkylamino BODIPY dyes as selective fluorescent probes for proteins and mouse embryonic stem cells” (National University of Singapore, priority 2011, dated 2016)

Columns and labels:
[1] = Spectroscopic properties of the BDM library (absorbance and emission maxima); type: physicochemical
[2] = Quantum yield measurements; type: physicochemical; settings: referred to Rhodamine B in EtOH, excitation 510 nm, emission integrated 540-800 nm
Description: Quantum yields were calculated by measuring the integrated emission area of the fluorescent spectra, and referring them to the area measured for Rhodamine B in EtOH after excitation at 510 nm (ΦRho-B=0.70). Quantum yields for the BDM products were then calculated using equation below, where F represents the area of fluorescent emission, n is reflective index of the solvent, and Abs is absorbance at excitation wavelength selected for standards and samples. Emission was integrated from 540 nm to 800 nm.

Row | λmax (ABS) [1] [nm] | λmax (EM) [1] [nm] | φ (quantum yield) [2] | Structure (SMILES)
1 | 561 | 586 | 0.21 | COc1cc(/C=C/c2cc(C)c3n2[B-](F)(F)[N+]2=CC=CC2=C3CCN)cc(OC)c1OC [BDM-1]
2 | 607 | 685 | 0.01 | Cc1cc(/C=C/c2ccc(N(C)C)cc2)n2c1C(CCN)=C1C=CC=[N+]1[B-]2(F)F [BDM-2]
3 | 600 | 683 | 0.05 | Cc1cc(/C=C/c2ccc(N(C)CCC#N)cc2)n2c1C(CCN)=C1C=CC=[N+]1[B-]2(F)F [BDM-3]
4 | 566 | 590 | 0.42 | Cc1cc(/C=C/c2ccc(OCc3ccccc3)c(OCc3ccccc3)c2)n2c1C(CCN)=C1C=CC=[N+]1[B-]2(F)F [BDM-4]
5 | 561 | 575 | 0.50 | Cc1cc(/C=C/c2ccc(-c3ccccc3)cc2)n2c1C(CCN)=C1C=CC=[N+]1[B-]2(F)F [BDM-5]
6 | 536 | 682 | 0.12 | Cc1cc(/C=C/c2c3ccccc3cc3ccccc23)n2c1C(CCN)=C1C=CC=[N+]1[B-]2(F)F [BDM-6]
7 | 566 | 591 | 0.37 | COc1ccc(/C=C/c2cc(C)c3n2[B-](F)(F)[N+]2=CC=CC2=C3CCN)cc1OCc1ccccc1 [BDM-7]
8 | 561 | 575 | 0.34 | Cc1cc(/C=C/c2ccc(-n3ccnc3)cc2)n2c1C(CCN)=C1C=CC=[N+]1[B-]2(F)F [BDM-8]
9 | 554 | 567 | 0.33 | Cc1cccc(/C=C/c2cc(C)c3n2[B-](F)(F)[N+]2=CC=CC2=C3CCN)c1 [BDM-9]
10 | 556 | 567 | 0.32 | Cc1cc(/C=C/c2ccc(Cl)cc2)n2c1C(CCN)=C1C=CC=[N+]1[B-]2(F)F [BDM-12]
11 | 593 | 624 | 0.02 | Cc1cc(/C=C/c2ccc(N(c3ccccc3)c3ccccc3)cc2)n2c1C(CCN)=C1C=CC=[N+]1[B-]2(F)F [BDM-14]
12 | 561 | 574 | 0.14 | Cc1cc(/C=C/c2cc(C)c3n2[B-](F)(F)[N+]2=CC=CC2=C3CCN)cc(C)c1OCc1ccccc1 [BDM-16]
13 | 622 | 695 | 0.03 | CCCCN(CCCC)c1ccc(/C=C/C2=[N+]3C(=C(CCN)c4cccn4[B-]3(F)F)C(C)=C2)cc1 [BDM-17]
14 | 567 | 588 | 0.33 | CSc1ccc(/C=C/c2cc(C)c3n2[B-](F)(F)[N+]2=CC=CC2=C3CCN)cc1 [BDM-18]
15 | 555 | 569 | 0.71 | Cc1cc(/C=C/c2ccc(C(C)C)cc2)n2c1C(CCN)=C1C=CC=[N+]1[B-]2(F)F [BDM-19]
16 | 554 | 564 | 0.47 | CC1=CC(/C=C/c2cccc(Oc3ccccc3)c2)=[N+]2C1=C(CCN)c1cccn1[B-]2(F)F [BDM-20]
17 | 567 | 584 | 0.14 | Cc1cc(/C=C/c2ccco2)n2c1C(CCN)=C1C=CC=[N+]1[B-]2(F)F [BDM-22]
18 | 553 | 566 | 0.39 | CC1=CC(/C=C/c2ccccc2)=[N+]2C1=C(CCN)c1cccn1[B-]2(F)F [BDM-27]
19 | 596 | 634 | 0.11 | Cc1cc(/C=C/c2ccc(-c3cccs3)s2)n2c1C(CCN)=C1C=CC=[N+]1[B-]2(F)F [BDM-30]
20 | 576 | 624 | 0.25 | COc1ccc(/C=C/c2cc(C)c3n2[B-](F)(F)[N+]2=CC=CC2=C3CCN)c2ccccc12 [BDM-32]
21 | 564 | 580 | 0.14 | Cc1ccc(O)c(/C=C/c2cc(C)c3n2[B-](F)(F)[N+]2=CC=CC2=C3CCN)c1 [BDM-33]

Row | λmax (ABS) [1] [nm] | λmax (EM) [1] [nm] | φ (quantum yield) [2] | Structure (SMILES)
22 | 547 | 581 | 0.65 | Cc1ccc2cccc(/C=C/c3cc(C)c4n3[B-](F)(F)[N+]3=CC=CC3=C4CCN)c2c1 [BDM-34]
23 | 568 | 595 | 0.23 | Cc1cc(/C=C/c2ccc(C)c3ccccc23)n2c1C(CCN)=C1C=CC=[N+]1[B-]2(F)F [BDM-36]
24 | 566 | 588 | 0.15 | CC1=CC(/C=C/c2csc3ccccc23)=[N+]2C1=C(CCN)c1cccn1[B-]2(F)F [BDM-37]
25 | 565 | 579 | 0.06 | COc1ccc(/C=C/c2cc(C)c3n2[B-](F)(F)[N+]2=CC=CC2=C3CCN)c(Cl)c1O [BDM-38]
26 | 554 | 567 | 0.53 | Cc1cc(/C=C/c2ccccc2-c2ccccc2)n2c1C(CCN)=C1C=CC=[N+]1[B-]2(F)F [BDM-40]
27 | 554 | 563 | 0.25 | COc1ccc(Oc2cccc(/C=C/c3cc(C)c4n3[B-](F)(F)[N+]3=CC=CC3=C4CCN)c2)cc1 [BDM-42]
28 | 564 | 579 | 0.21 | Cc1cc(/C=C/c2cc(C(C)(C)C)ccc2O)n2c1C(CCN)=C1C=CC=[N+]1[B-]2(F)F [BDM-43]
29 | 564 | 583 | 0.74 | CCCCCCOc1ccc(/C=C/c2cc(C)c3n2[B-](F)(F)[N+]2=CC=CC2=C3CCN)cc1 [BDM-45]
30 | 564 | 583 | 0.53 | CCCCOc1ccc(/C=C/c2cc(C)c3n2[B-](F)(F)[N+]2=CC=CC2=C3CCN)cc1 [BDM-46]
31 | 563 | 583 | 0.83 | C=CCOc1ccc(/C=C/c2cc(C)c3n2[B-](F)(F)[N+]2=CC=CC2=C3CCN)cc1 [BDM-48]
32 | 562 | 572 | 0.24 | Cc1cc(/C=C/c2ccc(C=O)cc2)n2c1C(CCN)=C1C=CC=[N+]1[B-]2(F)F [BDM-49]
33 | 568 | 600 | 0.46 | CCOc1ccc(/C=C/c2cc(C)c3n2[B-](F)(F)[N+]2=CC=CC2=C3CCN)cc1OCC [BDM-53]
34 | 559 | 573 | 0.52 | COc1ccc(Br)cc1/C=C/c1cc(C)c2n1[B-](F)(F)[N+]1=CC=CC1=C2CCN [BDM-54]
35 | 576 | 610 | 0.22 | COc1ccc2ccccc2c1/C=C/C1=[N+]2C(=C(CCN)c3cccn3[B-]2(F)F)C(C)=C1 [BDM-61]
36 | 567 | 594 | 0.43 | COc1ccc(/C=C/C2=[N+]3C(=C(CCN)c4cccn4[B-]3(F)F)C(C)=C2)cc1OC [BDM-62]
37 | 568 | 597 | 0.54 | CCOc1ccc(/C=C/C2=[N+]3C(=C(CCN)c4cccn4[B-]3(F)F)C(C)=C2)cc1OC [BDM-63]
38 | 589 | 615 | 0.15 | CC1=CC(/C=C/c2ccc(-c3ccccc3)s2)=[N+]2C1=C(CCN)c1cccn1[B-]2(F)F [BDM-65]
39 | 551 | 561 | 0.63 | CC1=CC(/C=C/c2ccc(OC(F)(F)F)cc2)=[N+]2C1=C(CCN)c1cccn1[B-]2(F)F [BDM-68]
40 | 582 | 642 | 0.13 | COc1ccc2c(OC)ccc(/C=C/C3=[N+]4C(=C(CCN)c5cccn5[B-]4(F)F)C(C)=C3)c2c1 [BDM-70]
41 | 561 | 575 | 0.28 | CC1=CC(/C=C/c2cc(Br)ccc2O)=[N+]2C1=C(CCN)c1cccn1[B-]2(F)F [BDM-73]
